# Source: PubChem BioAssay (NCI)
#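 Cultured in 96-well plates, cells were exposed to test compound for 48 hours across five concentrations. GI50 = concentration required for 50% inhibition of growth. The concentration for full growth arrest is given as TGI.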
# Columns and labels:
# Experiment in all cases: inhibition of tumour cell growth, NCI panel, 48 h
# [1] = test system: 786-0 renal
# [2] = test system: A498 renal
# [3] = test system: A549 NSCLC
# [4] = test system: ACHN renal
# [5] = test system: BT-549 breast
# [6] = test system: CAKI-1 renal
# [7] = test system: COLO 205 colon
# [8] = test system: DU-145 prostate
# [9] = test system: EKVX NSCLC
# [10] = test system: HCC-2998 colon
# [11] = test system: HCT-116 colon
# [12] = test system: HCT-15 colon
# [13] = test system: HL-60(TB) leukemia
# [14] = test system: HOP-62 NSCLC
# [15] = test system: HOP-92 NSCLC
# [16] = test system: HS 578T breast
# [17] = test system: HT29 colon
# [18] = test system: IGROV1 ovarian
# [19] = test system: K-562 leukemia
# [20] = test system: KM12 colon
# [21] = test system: LOX IMVI melanoma
# [22] = test system: M14 melanoma
# [23] = test system: MALME-3M melanoma
# [24] = test system: MCF7 breast
# [25] = test system: MDA-MB-231 breast
# [26] = test system: MDA-MB-435
# [27] = test system: MOLT-4 leukemia
# [28] = test system: NCI-H226 lung
# [29] = test system: NCI-H522 lung
# [30] = test system: NCI/ADR-RES ovarian
# [31] = test system: OVCAR-3 ovarian
# [32] = test system: OVCAR-4 ovarian
# [33] = test system: OVCAR-5 ovarian
# [34] = test system: OVCAR-8 ovarian
# [35] = test system: PC-3 prostate
# [36] = test system: RPMI-8226 leukemia
# [37] = test system: RXF 393 renal
# [38] = test system: SF-268 CNS
# [39] = test system: SF-295 CNS
# [40] = test system: SF-539 CNS
# [41] = test system: SK-MEL-2 melanoma
# [42] = test system: SK-MEL-28 melanoma
# [43] = test system: SK-MEL-5 melanoma
# [44] = test system: SK-OV-3 ovarian
# [45] = test system: SN12C renal
# [46] = test system: SNB-19 CNS
# [47] = test system: SNB-75 CNS
# [48] = test system: SR leukemia
# [49] = test system: SW-620 colon
# [50] = test system: T-47D breast
# [51] = test system: TK-10 renal
# [52] = test system: U251 CNS
# [53] = test system: UACC-257 melanoma
# [54] = test system: UACC-62 melanoma
# [55] = test system: UO-31 renal
structure (smiles),measurement,setting,value
CCOC(=O)Cc1csc(NC(=O)COC(=O)c2ccc(N)cc2)n1,GI50,[1],23.8 µM
same,TGI,[1],56.9 µM
same,GI50,[2],> 100 µM
same,TGI,[2],> 100 µM
same,GI50,[3],> 100 µM
same,TGI,[3],> 100 µM
same,GI50,[4],> 100 µM
same,TGI,[4],> 100 µM
same,GI50,[5],> 100 µM
same,TGI,[5],> 100 µM
same,GI50,[6],> 100 µM
same,TGI,[6],> 100 µM
same,GI50,[7],> 100 µM
same,TGI,[7],> 100 µM
same,GI50,[8],> 100 µM
same,TGI,[8],> 100 µM
same,GI50,[9],> 100 µM
same,TGI,[9],> 100 µM
same,GI50,[10],> 100 µM
same,TGI,[10],> 100 µM
same,GI50,[11],> 100 µM
same,TGI,[11],> 100 µM
same,GI50,[12],> 100 µM
same,TGI,[12],> 100 µM
same,GI50,[13],20 µM
same,TGI,[13],41.3 µM
same,GI50,[14],> 100 µM
same,TGI,[14],> 100 µM
same,GI50,[15],20.7 µM
same,TGI,[15],44.8 µM
same,GI50,[16],> 100 µM
same,TGI,[16],> 100 µM
same,GI50,[17],56.9 µM
same,TGI,[17],> 100 µM
same,GI50,[18],21.8 µM
same,TGI,[18],49.8 µM
same,GI50,[19],88.3 µM
same,TGI,[19],> 100 µM
same,GI50,[20],> 100 µM
same,TGI,[20],> 100 µM
same,GI50,[21],14.1 µM
same,TGI,[21],34.6 µM
same,GI50,[22],> 100 µM
same,TGI,[22],> 100 µM
same,GI50,[23],> 100 µM
same,TGI,[23],> 100 µM
same,GI50,[24],97.9 µM
same,TGI,[24],> 100 µM
same,GI50,[25],> 100 µM
same,TGI,[25],> 100 µM
same,GI50,[26],> 100 µM
same,TGI,[26],> 100 µM
same,GI50,[27],28.5 µM
same,TGI,[27],81.4 µM
same,GI50,[28],> 100 µM
same,TGI,[28],> 100 µM
same,GI50,[29],18.8 µM
same,TGI,[29],40 µM
same,GI50,[30],> 100 µM
same,TGI,[30],> 100 µM
same,GI50,[31],18.8 µM
same,TGI,[31],50.7 µM
same,GI50,[32],72 µM
same,TGI,[32],> 100 µM
same,GI50,[33],59.3 µM
same,TGI,[33],> 100 µM
same,GI50,[34],95.7 µM
same,TGI,[34],> 100 µM
same,GI50,[35],68.4 µM
same,TGI,[35],> 100 µM
same,GI50,[36],40.4 µM
same,TGI,[36],> 100 µM
same,GI50,[37],> 100 µM
same,TGI,[37],> 100 µM
same,GI50,[38],23.6 µM
same,TGI,[38],60 µM
same,GI50,[39],> 100 µM
same,TGI,[39],> 100 µM
same,GI50,[40],19.3 µM
same,TGI,[40],37 µM
same,GI50,[41],> 100 µM
same,TGI,[41],> 100 µM
same,GI50,[42],> 100 µM
same,TGI,[42],> 100 µM
same,GI50,[43],97.6 µM
same,TGI,[43],> 100 µM
same,GI50,[44],> 100 µM
same,TGI,[44],> 100 µM
same,GI50,[45],> 100 µM
same,TGI,[45],> 100 µM
same,GI50,[46],> 100 µM
same,TGI,[46],> 100 µM
same,GI50,[47],54.4 µM
same,TGI,[47],> 100 µM
same,GI50,[48],13.4 µM
same,TGI,[48],45.2 µM
same,GI50,[49],> 100 µM
same,TGI,[49],> 100 µM
same,GI50,[50],75.4 µM
same,TGI,[50],> 100 µM
same,GI50,[51],> 100 µM
same,TGI,[51],> 100 µM
same,GI50,[52],> 100 µM
same,TGI,[52],> 100 µM
same,GI50,[53],> 100 µM
same,TGI,[53],> 100 µM
same,GI50,[54],> 100 µM
same,TGI,[54],> 100 µM
same,GI50,[55],76.6 µM
same,TGI,[55],> 100 µM
